In patent US20240158446A1, “CYCLIC COMPOUND HAVING SELECTIVE INHIBITORY ACTION ON KRAS OVER HRAS AND NRAS” (CHUGAI SEIYAKU KABUSHIKI KAISHA, priority 2021, published 2024):
Read-outs that look alike come from different tables or passages of the source. Where a SMILES comes first, the peptide text is derived from it. Bridges are numbered along the chain shown (N, C = ends). [ ]: non-standard residue; d: D form. The star is where a group is joined. hPhe(3-Cl-4-CF3) = N[C@@H](CCc1ccc(C(F)(F)F)c(Cl)c1)C(=O)O; NPrPhe(4-CF3) = CCCN[C@@H](Cc1ccc(C(F)(F)F)cc1)C(=O)O; Morpholine(3S-CO) = O=C(O)[C@@H]1COCCN1; NMeGly(cPent) = CN[C@H](C(=O)O)C1CCCC1; Hyp = O=C(O)[C@@H]1C[C@@H](O)CN1; NMeD = CN[C@@H](CC(=O)O)C(=O)O; NMeL = CN[C@@H](CC(C)C)C(=O)O; Morpholide = C1CN(*)CCO1; NMeA = CN[C@@H](C)C(=O)O; Ac5c = NC1(C(=O)O)CCCC1; Aze = O=C(O)[C@@H]1CCN1; Aib = CC(C)(N)C(=O)O; NEtG = CCNCC(=O)O; Sar = CNCC(=O)O

How the values were obtained:
[1] = target: GDP-bound NRAS wild-type protein (Homo sapiens, UniProt P01111); assay: Binding to NRAS by surface plasmon resonance (SPR), Single Cycle Kinetics; conditions: for NRAS/KRAS (ratio of KD value for NRAS to KD value for KRAS) / NRAS/KRAS (ratio of KD value with respect to NRAS to KD value with respect to KRAS): SPR, GDP-bound NRAS wild-type protein vs GDP-bound KRAS wild-type protein
[2] = target: GDP-bound KRAS wild-type protein (Homo sapiens, UniProt P01116); assay: Binding to KRAS by surface plasmon resonance (SPR), Single Cycle Kinetics; conditions: GDP-bound KRAS wild-type protein, read-out: KRAS KD
[3] = target: GDP-bound HRAS wild-type protein (Homo sapiens, UniProt P01112); assay: Binding to HRAS by surface plasmon resonance (SPR), Single Cycle Kinetics; conditions: for HRAS/KRAS (ratio of KD value for HRAS to KD value for KRAS) / HRAS/KRAS (ratio of KD value with respect to HRAS to KD value with respect to KRAS): SPR, GDP-bound HRAS wild-type protein vs GDP-bound KRAS wild-type protein
[4] = SPR Single Cycle Kinetics, 1:1 binding model

Sequence of GDP-bound HRAS wild-type protein (P01112 whole entry): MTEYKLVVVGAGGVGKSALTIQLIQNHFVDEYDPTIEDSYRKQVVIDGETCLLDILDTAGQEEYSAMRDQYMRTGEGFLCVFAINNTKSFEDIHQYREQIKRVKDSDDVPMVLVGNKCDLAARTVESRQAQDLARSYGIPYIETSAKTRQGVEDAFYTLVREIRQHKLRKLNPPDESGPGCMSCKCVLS
Sequence of GDP-bound NRAS wild-type protein (P01111 whole entry): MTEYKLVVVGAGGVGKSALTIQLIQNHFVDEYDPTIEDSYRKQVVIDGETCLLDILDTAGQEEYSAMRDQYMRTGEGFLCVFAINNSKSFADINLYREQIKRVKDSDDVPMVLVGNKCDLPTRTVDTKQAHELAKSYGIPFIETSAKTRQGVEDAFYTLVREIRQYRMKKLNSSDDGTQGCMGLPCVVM
Sequence of GDP-bound KRAS wild-type protein (P01116 whole entry): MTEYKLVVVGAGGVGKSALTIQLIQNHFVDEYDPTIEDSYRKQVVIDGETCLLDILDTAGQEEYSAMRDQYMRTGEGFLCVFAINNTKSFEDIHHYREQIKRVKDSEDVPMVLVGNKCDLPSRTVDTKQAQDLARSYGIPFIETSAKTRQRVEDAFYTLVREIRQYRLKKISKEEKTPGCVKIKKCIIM

Kd ([2]; SPR, Single Cycle Kinetics) [nM] | Kd [2, 4] [nM] | SMILES | NRAS/KRAS (ratio of KD value for NRAS to KD value for KRAS) [1] | HRAS/KRAS (ratio of KD value for HRAS to KD value for KRAS) [3] | also measured
0.28 |  | CCC[C@H]1C(=O)N[C@@H]([C@@H](C)CC)C(=O)N(C)CC(=O)N(C)[C@H]2C/C=C\CCN(C2=O)[C@@H](Cc2ccc(C(F)(F)F)cc2)C(=O)N(C)CC(=O)N[C@@H](CCc2ccc(C(F)(F)F)c(Cl)c2)C(=O)N2CC3(CC3)C[C@H]2C(=O)NC2(CC(C)(C)C2)C(=O)N(C)[C@@H](CC(C)(C)C)C(=O)N(C)[C@H](C(=O)N(C)C)CC(=O)N1C [PP2979] | A (a compound having 10 or more and less than 20 is denoted as A) | B (a compound having 3 or more and less than 10 is denoted as B) | 
0.56 |  | CCCO[C@@H]1C[C@H]2C(=O)NC3(CC(C)(C)C3)C(=O)N(C)[C@@H](C(CC)CC)C(=O)N(C)[C@H](C(=O)N(C)C)CC(=O)N(C)[C@H]3CCCc4ccc(cc4)C[C@@H](C(=O)N(C)CC(=O)N[C@@H](CCc4ccc(C(F)(F)F)c(OC)c4)C(=O)N2C1)N1CC/C=C\C[C@@H](C1=O)N(C)C(=O)CN(C)C(=O)[C@H]([C@@H](C)CC)NC3=O [PP3063] | B (a compound having 3 or more and less than 10 is denoted as B) | B (a compound having 3 or more and less than 10 is denoted as B) | 
 | 5 | CCC[C@H]1C(=O)N[C@@H]([C@@H](C)CC)C(=O)N(C2CC2)CC(=O)N(C)[C@H]2C/C=C\CCN(C2=O)[C@@H](Cc2ccc(C(F)(F)F)cc2)C(=O)N(C)CC(=O)N[C@@H](CCc2ccc(C(F)(F)F)c(OC)c2)C(=O)N2C[C@H](OCC)C[C@H]2C(=O)NC2(CC(C)(C)C2)C(=O)N(C)[C@@H](CC2CCC2)C(=O)N(C)[C@H](C(=O)N(C)C)CC(=O)N1C [PP2770] |  |  | NRAS/KRAS (ratio of KD value with respect to GDP-bound NRAS wild-type protein to KD value with respect to KRAS) ([1]; SPR KD ratio NRAS/KRAS, class symbols): A (a compound having 10 or more and less than 20 is denoted as A); HRAS/KRAS (ratio of KD value with respect to GDP-bound HRAS wild-type protein to KD value with respect to KRAS) ([3]; SPR KD ratio HRAS/KRAS, class symbols): A (a compound having 10 or more and less than 20 is denoted as A)
0.29 |  | CCO[C@@H]1C[C@H]2C(=O)NC3(CCC3)C(=O)N(C)[C@@H](C(CC)CC)C(=O)N(C)[C@H](C(=O)N3CCCC3)CC(=O)N(C)[C@H]3CCC/C=C/c4ccc(cc4)C[C@@H](C(=O)N(C)CC(=O)N[C@@H](CCc4ccc(Cl)c(Cl)c4)C(=O)N2C1)N1CC/C=C\C[C@@H](C1=O)N(C)C(=O)CN(C1CC1)C(=O)[C@H]([C@@H](C)CC)NC3=O [PP3040] | AA (a compound having 20 or more is denoted as AA) | A (a compound having 10 or more and less than 20 is denoted as A) | 
0.066 |  | CCO[C@@H]1C[C@H]2C(=O)N(C)C3(CC(C)(C)C3)C(=O)N(C)[C@@H](C3CCCC3)C(=O)N(C)[C@H](C(=O)N(C)C)CC(=O)N(C)[C@H]3CCCC/C=C/c4ccc(cc4)C[C@@H](C(=O)N(C)CC(=O)N[C@@H](CCc4ccc(Cl)c(Cl)c4)C(=O)N2C1)N1CC/C=C\C[C@@H](C1=O)N(C)C(=O)CN(C)C(=O)[C@H]([C@@H](C)CC)NC3=O [PP3062] | A (a compound having 10 or more and less than 20 is denoted as A) | A (a compound having 10 or more and less than 20 is denoted as A) | 
3.8 |  | CCO[C@@H]1C[C@H]2C(=O)NC3(CC(C)(C)C3)C(=O)N(C)[C@@H](C(CC)CC)C(=O)N(C)[C@H](C(=O)N(C)C)CC(=O)N(C)[C@@H](C)C(=O)N[C@@H]([C@@H](C)CC)C(=O)N(C)CC(=O)N(C)[C@H]3C/C=C\CCN(C3=O)[C@@H](Cc3ccc(C)cc3)C(=O)N(C)CC(=O)N[C@@H](CCc3ccc(C(F)(F)F)c(Cl)c3)C(=O)N2C1 [PP2150] | AA (a compound having 20 or more is denoted as AA) | A (a compound having 10 or more and less than 20 is denoted as A) | 

Further lines, the compound ahead of its results:

SMILES | Kd ([2]; SPR, Single Cycle Kinetics) [nM] | Kd [2, 4] [nM] | NRAS/KRAS (ratio of KD value for NRAS to KD value for KRAS) [1] | HRAS/KRAS (ratio of KD value for HRAS to KD value for KRAS) [3] | also measured
CCO[C@@H]1C[C@H]2C(=O)NC3(CCCC3)C(=O)N(C)[C@@H](C3CCCC3)C(=O)N(C)[C@H](C(=O)N(C)C)CC(=O)N(C)[C@@H](CC)C(=O)N[C@@H]([C@@H](C)CC)C(=O)N(C)CC(=O)N(C)[C@H]3C[C@@H](C)CCN(C3=O)[C@@H](Cc3ccc(C(F)(F)F)cc3)C(=O)N(C)CC(=O)N[C@@H](CCc3cc(F)c(C(F)(F)F)c(F)c3)C(=O)N2C1 [PP1022] | 0.036 |  | C (A compound having a KD ratio of 0.1 or more and less than 3 is denoted as C) | B (a compound having 3 or more and less than 10 is denoted as B) | 
CCO[C@@H]1C[C@H]2C(=O)NC3(CC(C)(C)C3)C(=O)N(C)[C@@H](C(CC)CC)C(=O)N(C)[C@H](C(=O)N3CCCC3)CC(=O)N(C)[C@@H](C)C(=O)N[C@@H]([C@@H](C)CC)C(=O)N(C)CC(=O)N(C)[C@H]3C/C=C\CCN(C3=O)[C@@H](Cc3ccc(C(F)(F)F)cc3)C(=O)N(C)CC(=O)N[C@@H](CCc3ccc(C(F)(F)F)c(OC)c3)C(=O)N2C1 [PP2163] | 0.41 |  | A (a compound having 10 or more and less than 20 is denoted as A) | A (a compound having 10 or more and less than 20 is denoted as A) | 
CCO[C@@H]1C[C@H]2C(=O)NC3(CC(C)(C)C3)C(=O)N(C)[C@@H](C3CCCC3)C(=O)N(C)[C@H](C(=O)N(C)C)CC(=O)N(C)[C@@H](CC3CC3)C(=O)N[C@@H]([C@@H](C)CC)C(=O)N(C)CC(=O)N(C)[C@H]3C/C=C\CCN(C3=O)[C@@H](Cc3ccc(C(F)(F)F)cc3)C(=O)N(C)CC(=O)N[C@@H](CCc3cc(F)c(C(F)(F)F)c(F)c3)C(=O)N2C1 [PP1568] |  |  |  |  | NRAS/KRAS (ratio of KD value for NRAS to KD value for KRAS) ([1]; KD ratio class): A (a compound having 10 or more and less than 20 is denoted as A); Kd ([2]; SPR, Single Cycle Kinetics, 1:1 binding model): 0.031 nM; HRAS/KRAS (ratio of KD value for HRAS to KD value for KRAS) ([3]; KD ratio class): A (a compound having 10 or more and less than 20 is denoted as A)
CCO[C@@H]1C[C@H]2C(=O)NC3(CC(C)(C)C3)C(=O)N(C)[C@@H](C3CCCC3)C(=O)N(C)[C@H](C(=O)N3CCOCC3)CC(=O)N(C)[C@@H](CC(C)C)C(=O)N[C@@H]([C@@H](C)CC)C(=O)N(C)CC(=O)N(C)[C@H]3CCCCCN(C3=O)[C@@H](Cc3ccc(C(F)(F)F)cc3)C(=O)N(C)CC(=O)N[C@@H](CCc3cc(F)c(C(F)(F)F)c(F)c3)C(=O)N2C1 [PP0726] |  | 1.1 |  |  | NRAS/KRAS (ratio of KD value with respect to NRAS to KD value with respect to KRAS) [1]: B (a compound having 3 or more and less than 10 is denoted as B); HRAS/KRAS (ratio of KD value with respect to HRAS to KD value with respect to KRAS) [3]: B (a compound having 3 or more and less than 10 is denoted as B)
CCCN1C(=O)[C@@H]2CCN2C(=O)[C@H](C)N(C)C(=O)[C@H]([C@@H](C)CC)NC(=O)[C@H](CC(C)C)N(C)C(=O)C[C@@H](C(=O)N2CCOCC2)N(C)C(=O)[C@H](C2CCCC2)N(C)C(=O)C(C)(C)NC(=O)[C@@H]2CCCN2C(=O)[C@H](CCc2ccc(C(F)(F)F)c(Cl)c2)NC(=O)CN(C)C(=O)[C@@H]1Cc1ccc(C(F)(F)F)cc1 [PP0225] ([NMeL]I[NMeA][Aze][NPrPhe(4-CF3)][Sar][hPhe(3-Cl-4-CF3)]P[Aib][NMeGly(cPent)][NMeD]-Morpholide; lactam N-11) |  | 0.23 | C (A compound having a KD ratio of 0.1 or more and less than 3 is denoted as C) | C (A compound having a KD ratio of 0.1 or more and less than 3 is denoted as C) | 
CC[C@H](C)[C@@H]1NC(=O)[C@H](CC(C)C)N(C)C(=O)C[C@@H](C(=O)N2CCOCC2)N(C)C(=O)[C@H](C2CCCC2)N(C)C(=O)C2(CCCC2)NC(=O)[C@@H]2CCCN2C(=O)[C@H](CCc2ccc(C(F)(F)F)c(Cl)c2)NC(=O)CN(C)C(=O)[C@H](Cc2ccc(OC(F)(F)F)cc2)N2CC=CC[C@@H](C2=O)N(C)C(=O)CN(C)C1=O [PP0537] |  | 5.8 |  |  | NRAS/KRAS (ratio of KD value with respect to NRAS to KD value with respect to KRAS) [1]: C (A compound having a KD ratio of 0.1 or more and less than 3 is denoted as C); HRAS/KRAS (ratio of KD value with respect to HRAS to KD value with respect to KRAS) [3]: C (A compound having a KD ratio of 0.1 or more and less than 3 is denoted as C)
CCCN1C(=O)CN(C)C(=O)CN(CC)C(=O)[C@H]([C@@H](C)CC)NC(=O)[C@H](CC(C)C)N(C)C(=O)C[C@@H](C(=O)N2CCOCC2)N(C)C(=O)[C@H](C2CCCC2)N(C)C(=O)C2(CCCC2)NC(=O)[C@@H]2COCCN2C(=O)[C@H](CCc2ccc(C(F)(F)F)c(Cl)c2)NC(=O)CN(C)C(=O)[C@@H]1Cc1ccc(C(F)(F)F)cc1 [PP0299] ([NMeL]I[NEtG][Sar][NPrPhe(4-CF3)][Sar][hPhe(3-Cl-4-CF3)][Morpholine(3S-CO)][Ac5c][NMeGly(cPent)][NMeD]-Morpholide; lactam N-11) |  | 1.4 | B (a compound having 3 or more and less than 10 is denoted as B) | B (a compound having 3 or more and less than 10 is denoted as B) | 
CCCN1C(=O)CN(C)C(=O)CNC(=O)[C@H]([C@@H](C)CC)NC(=O)[C@H](CC(C)C)N(C)C(=O)C[C@@H](C(=O)N2CCOCC2)N(C)C(=O)[C@H](C2CCCC2)N(C)C(=O)C2(CCCC2)NC(=O)[C@@H]2C[C@@H](OCC)CN2C(=O)[C@H](CCc2ccc(C(F)(F)F)c(Cl)c2)NC(=O)CN(C)C(=O)[C@@H]1Cc1ccc(C(F)(F)F)cc1 [PP0396] ([NMeL]IG[Sar][NPrPhe(4-CF3)][Sar][hPhe(3-Cl-4-CF3)][Hyp](Et)[Ac5c][NMeGly(cPent)][NMeD]-Morpholide; lactam N-11) |  | 0.13 | B (a compound having 3 or more and less than 10 is denoted as B) | C (A compound having a KD ratio of 0.1 or more and less than 3 is denoted as C) | 
